Assay results taken from patent publication US8883199B2, “Administration regime for N-hydroxy-4-{2-[3-(N,N-dimethylaminomethyl)benzofuran-2-ylcarbonylamino]ethoxy}benzamide” (priority 2011, dated 2014).

How the values were obtained:
[1] = test system: patients with solid tumours; experiment: Clinical Study 1: toxicity and efficacy in monotherapy, two p.o. administration regimes
Procedure: A clinical study was set up to test the toxicity and efficacy of N-hydroxy-4-{2-[3-(N,N-dimethylaminomethyl)benzofuran-2-ylcarbonylamino]ethoxy}benzamide hydrochloride. 36 patients with solid tumours were included and treated in this study. A first administration regime was tested over a cycle of three weeks, with 14 consecutive days of 2 p.o. administrations 4 hours apart, followed by a week without treatment. Four dosage levels were successively tested from 30 to 75 mg/m^2 (expressed as a salt) twice daily. The acceptability of the various N-hydroxy-4-{2-[3-(N,N-dimethylaminomethyl)-benzofuran-2-ylcarbonylamino]ethoxy}benzamide dose levels were evaluated (especially, haematological toxicities) at the end of the first cycle.
This cycle can be repeated as many times as necessary for treatment of the cancer.

[2] = test system: histone deacetylase (HDAC); details: cited from earlier work
cultured tumour cells = cultured tumour cells in vitro; cited from earlier work
xenograft models = details: in vivo; cited from earlier work

For CN(C)Cc1c(C(=O)NCCOc2ccc(C(=O)NO)cc2)oc2ccccc12 [N-hydroxy-4-{2-[3-(N,N-dimethylaminomethyl)benzofuran-2-ylcarbonylamino]ethoxy}benzamide], the maximum tolerated dose ([1]; first regime: 14 consecutive days of 2 p.o. administrations 4 hours apart, then a week without treatment, hydrochloride, dose expressed as a salt, 36 patients with solid tumours) was 75 mg/m^2 twice daily, the “platelet toxicity, second regime compared with first regime” value ([1]; human, in vivo) was “less platelet toxicity than the previous regime” and the reversibility of thrombopenias ([1]; human, in vivo) was “reversible”. The “toxicities which limited increasing the dose” value ([1]; human, in vivo, 3 weeks) was “grade 4 thrombopenias”, the recommended dose ([1]; human, in vivo, po, 3 weeks) was 90 mg/m^2 twice daily and the maximum tolerated dose ([1]; second regime: 4 consecutive days of 2 p.o. administrations 4 hours apart, then 3 days without treatment, each of the 3 weeks of a cycle) was 105 mg/m^2 twice daily. For the same compound, the “histone deacetylase (HDAC) inhibition” value [2] was “powerful”, the apoptosis (cultured tumour cells) was “induces apoptosis” and the cell growth (cultured tumour cells) was “inhibition of cell growth”. The tumour growth (xenograft models) was “inhibits tumour growth”.
